Among the data in patent US20260042764A1, “COMPOSITIONS AND METHODS FOR INHIBITION OF KRAS” (TheRas, Inc., priority 2022, published 2026) are IC50 values, retold here.

Assay [1] concerns the target T1, Avi-KRAS G12D (1-169) GppNHp/RAF1 RBD-3xFLAG (52-151) (Homo sapiens, UniProt P01116, G12D).
T1 construct: Avi-KRAS G12D (1-169)
The experiment in a line: Raf1-KRAS G12D-GppNHP disruption HTRF assay (Biological Example 1). It is filed as binding. Conditions: KRAS G12D, GppNHp-loaded; Table 11. Here is the method:
(§1) A protein:protein interaction (PPI) Homogeneous Time Resolved Fluorescence (HTRF) assay was used to determine the effectiveness of compounds of the present disclosure in disrupting KRAS protein and effector RAF1 binding.
(§2) The assay buffer included: 50 mM Tris pH 7.5, 100 mM NaCl, 5 mM MgCl2, 0.1% BSA, 0.01% Tween, and 10% DMSO. The bead buffer included: 50 mM Tris pH 7.5, and 0.01% Tween 20. Assay volume of 20 μL was used in a 384 well plate-low volume format.
(§3) The HTRF assay employed the following protocol:
(§4) Protein mix was prepared in assay buffer, and dispensed on plates, 10 μL per well, then incubated for 1 h at room temperature, with 700 rpm shaking, Reagents mix was prepared and dispensed on plates, 10 μL per well, then incubated for 1 h at room temperature, with 700 rpm shaking.
(§5) Data was reported as percentage of activity, with DMSO as 100%. Data was plotted and analyzed using Prism 8.
A general note: TR-FRET usually uses a lanthanide donor and a delayed reading to cut background.

The target of assay [2] is T2, Avi-KRAS G12V (1-169) GppNHp/RAF1 RBD-3xFLAG (52-151) (Homo sapiens, UniProt P01116, G12V).
T2 construct: Avi-KRAS G12V (1-169)
The experiment in a line: Raf1-KRAS G12V-GppNHP disruption HTRF assay (Biological Example 1). The assay is classed as binding. Conditions: KRAS G12V, GppNHp-loaded; Table 11. Here is the method:
as §1, §2, §3, §4, §5

Assay [3] has as its target T3, Avi-KRAS G12R (1-169) GppNHp/RAF1 RBD-3xFLAG (52-151) (Homo sapiens, UniProt P01116, G12R).
T3 construct: Avi-KRAS G12R (1-169)
The assay is described as follows: Raf1-KRAS G12R-GppNHP disruption HTRF assay (Biological Example 1). It is filed as binding. Conditions: KRAS G12R, GppNHp-loaded; Table 11. Here is the method: as §1, §2, §3, §4, §5

Assay [4] deals with T4, Avi-KRAS WT (1-169) GppNHp/RAF1 RBD-3xFLAG (52-151) (Homo sapiens, UniProt P01116).
T4 construct: Avi-KRAS WT (1-169)
The experiment in a line: Raf1-KRAS WT-GppNHP disruption HTRF assay (Biological Example 1). It is filed as binding. Particulars: KRAS WT, GppNHp-loaded; Table 11. As for the experimental part: as §1, §2, §3, §4, §5

In assay [5] the test system is GP2d cells (KRAS G12D). The experiment in a line: Cell-based pERK HTRF assay in GP2d cell (Biological Example 2). Particulars: GP2d (KRAS G12D) cells, pERK HTRF. As for the experimental part: A pERK assay (Perkin Elmer) was used to determine the effectiveness of compounds in disrupting KRAS G12D protein/effector signaling in cells.
On Day 1, cells (GP2d) were seeded into 96-well plates at 3×10^4 cells/well in 80 μL complete growth media (DMEM, 10% FBS).
On Day 2, cells were treated with compounds at 0.25% DMSO. The source plate was created with compounds diluted in media at 5-fold the final assay concentration. The compounds were run in a 9-point concentration curve starting at 1 μM or in a 9-point concentration curve starting at 100 nM, with a half-log dilution between concentrations. Twenty μL was transferred onto the cell plates (final volume in wells was 100 μL). Plates were harvested after 60 min incubation by aspirating media and adding kit-supplied 1x supplemented lysis buffer to all wells (50 μL per well). Plates were then placed on a plate shaker and incubated at 850 rpm for an additional 30 min.
Antibody mixture solution was prepared by diluting aliquoted d2 and Eu Cryptate antibodies 1:20 in kit supplied detection buffer, and mixing the diluted antibodies solutions (1:1 v:v).
Samples were homogenized by pipetting up and down and then transferred (16 μL of cell lysates) from the 96-well cell culture plate to two wells of the HTRF 384-well detection plate containing the antibody solution. Plates were centrifuged (524 g for 1 min) and allowed to incubate between 4 and 24 h at room temperature. Maximum signal is reached after 4 h incubation time and remains stable over a period of 24 hours. Therefore, readings can be made between 4 and 24 h of incubation. Plates were centrifuged again (524 g for Imin), then analyzed on the EnVision plate reader using the following settings: Excitation 320 nm, Bandwidth 75 nm; Emission 615 nm, Bandwidth 85 nm; Gain 100%; Flashes 100; Lag 60 μs.

T1 sequence (P01116 1-169 isoform P01116-2 G12D): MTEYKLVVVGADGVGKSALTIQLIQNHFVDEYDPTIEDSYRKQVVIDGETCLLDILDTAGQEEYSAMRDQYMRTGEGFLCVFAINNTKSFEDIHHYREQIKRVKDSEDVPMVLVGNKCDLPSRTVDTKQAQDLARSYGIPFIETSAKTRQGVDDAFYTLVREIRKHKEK
T2 sequence (P01116 1-169 isoform P01116-2 G12V): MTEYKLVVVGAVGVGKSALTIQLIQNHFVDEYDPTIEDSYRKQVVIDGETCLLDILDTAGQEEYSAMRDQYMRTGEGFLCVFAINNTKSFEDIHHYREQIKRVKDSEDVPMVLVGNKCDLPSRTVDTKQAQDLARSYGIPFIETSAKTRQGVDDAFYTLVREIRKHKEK
T4 sequence (P01116 1-169 isoform P01116-2): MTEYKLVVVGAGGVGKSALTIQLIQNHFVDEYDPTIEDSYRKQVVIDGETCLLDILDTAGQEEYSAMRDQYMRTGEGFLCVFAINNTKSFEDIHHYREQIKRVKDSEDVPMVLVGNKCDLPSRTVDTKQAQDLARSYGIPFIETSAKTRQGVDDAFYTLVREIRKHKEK
T3 sequence (P01116 1-169 isoform P01116-2 G12R): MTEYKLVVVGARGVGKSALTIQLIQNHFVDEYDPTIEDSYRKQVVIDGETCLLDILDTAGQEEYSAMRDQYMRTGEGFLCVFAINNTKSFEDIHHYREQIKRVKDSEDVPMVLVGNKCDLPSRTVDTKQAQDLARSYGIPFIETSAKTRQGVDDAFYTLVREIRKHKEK

The IC50 is the concentration that gives 50% inhibition. Take `N#Cc1c(N)sc2c(F)ccc(-c3c(C(F)(F)F)cc4c(N(CCO)CCO)nc(OC[C@@]56CCCN5C[C@H](F)C6)nc4c3F)c12` [Compound 174]: the IC50 in assay [1] was less than 0.1 µM; in assay [2], 0.1 to 1 µM; in assay [3], less than 0.1 µM; in assay [4] it was less than 0.1 µM; in assay [5] (GP2d), less than 0.1 µM.
Consider `N#Cc1c(N)sc2c(F)ccc(-c3c(C(F)(F)F)cc4c(N5CCC(F)CC5)nc(OC[C@@]56CCCN5C[C@H](F)C6)nc4c3F)c12` [Compound 151], for which the IC50 in assay [1] was 0.1 to 1 µM; in assay [2], 0.1 to 1 µM; in assay [3] it was 0.1 to 1 µM; in assay [4], 0.1 to 1 µM; in assay [5] (GP2d) it was less than 0.1 µM.
On to `CC(=O)N1CCN(c2nc(OC[C@@]34CCCN3C[C@H](F)C4)nc3c(F)c(-c4ccc(F)c5sc(N)c(C#N)c45)c(C(F)(F)F)cc23)C[C@@H]1CC#N` [Compound 183], for which the IC50 in assay [1] fell in the range of 1 to 10 µM; in assay [2], 1 to 10 µM; in assay [3] it was 1 to 10 µM; in assay [4], 1 to 10 µM; in assay [5] (GP2d), 0.1 to 1 µM.
As for `N#Cc1c(N)sc2c(F)ccc(-c3c(C(F)(F)F)cc4c(N5CC[C@@H](O)C5)nc(OC[C@@]56CCCN5C[C@H](F)C6)nc4c3F)c12` [Compound 126], the IC50 in assay [1] was 0.1 to 1 µM; in assay [2] it was 0.1 to 1 µM; in assay [3], 0.1 to 1 µM; in assay [4], 0.1 to 1 µM; in assay [5] (GP2d), less than 0.1 µM.
Take `CN(c1nc(OC[C@@]23CCCN2C[C@H](F)C3)nc2c(F)c(-c3ccc(F)c4sc(N)c(C#N)c34)c(C(F)(F)F)cc12)[C@H]1C[C@@H](O)C1` (single isomer, unassigned) [Compound 20]: the IC50 was in the range of 1 to 10 µM in assay [1]; 1 to 10 µM in assay [2]; 1 to 10 µM in assay [3]; 1 to 10 µM in assay [4]; 0.1 to 1 µM in assay [5] (GP2d).
Consider `N#Cc1c(N)sc2c(F)ccc(-c3c(C(F)(F)F)cc4c(N5CC6CCC5CO6)nc(OC[C@@]56CCCN5C[C@H](F)C6)nc4c3F)c12` (stereo partly drawn) [Compound 146], for which the IC50 was 0.1 to 1 µM in assay [1]; 0.1 to 1 µM in assay [2]; 0.1 to 1 µM in assay [3]; 0.1 to 1 µM in assay [4]; less than 0.1 µM in assay [5] (GP2d).
With `N#Cc1c(N)sc2c(F)ccc(-c3c(C(F)(F)F)cc4c(N5CCC(CO)CC5)nc(OC[C@@]56CCCN5C[C@H](F)C6)nc4c3F)c12` [Compound 44, 2-amino-7-fluoro-4-(8-fluoro-2-(((2R,7aS)-2-fluorotetrahydro-1H-pyrrolizin-7a(5H)-yl)methoxy)-4-(4-(hydroxymethyl)piperidin-1-yl)-6-(trifluoromethyl)quinazolin-7-yl)benzo[b]thiophene-3-carbonitrile], the IC50 in assay [1] is 0.1 to 1 µM; in assay [2], 0.1 to 1 µM; in assay [3] it was 0.1 to 1 µM; in assay [4], 0.1 to 1 µM; in assay [5] (GP2d), less than 0.1 µM.
On to `CCN(CCO)c1nc(OCC23CCCN2CCC3)nc2c(F)c(-c3ccc(F)c4sc(N)c(C#N)c34)c(C(F)(F)F)cc12` [Compound 176], for which the IC50 in assay [1] was less than 0.1 µM; in assay [2], 0.1 to 1 µM; in assay [3], 0.1 to 1 µM; in assay [4], 0.1 to 1 µM; in assay [5] (GP2d), less than 0.1 µM.
In the case of `CN(c1nc(OC[C@@]23CCCN2C[C@H](F)C3)nc2c(F)c(-c3ccc(F)c4sc(N)c(C#N)c34)c(C(F)(F)F)cc12)[C@@H]1C[C@H](O)[C@@H]1CO` [Compound 37], the IC50 is less than 0.1 µM in assay [1]; 0.1 to 1 µM in assay [2]; less than 0.1 µM in assay [3]; less than 0.1 µM in assay [4]; less than 0.1 µM in assay [5] (GP2d).
`CC(=O)N1CCN(c2nc(OC[C@@]34CCCN3C[C@H](F)C4)nc3c(F)c(-c4ccc(F)c5sc(N)c(C#N)c45)c(C(F)(F)F)cc23)C[C@H]1CC#N` [Compound 184]: the IC50 was 1 to 10 µM in assay [1]; more than 10 µM in assay [2]; more than 10 µM in assay [3]; more than 10 µM in assay [4]; 0.1 to 1 µM in assay [5] (GP2d).
Consider `CN(c1nc(OC[C@@]23CCCN2C[C@H](F)C3)nc2c(F)c(-c3ccc(F)c4sc(N)c(C#N)c34)c(C(F)(F)F)cc12)[C@@H]1CCC[C@H]1CO` [Compound 87], for which the IC50 in assay [1] was more than 10 µM; in assay [2], more than 10 µM; in assay [3], more than 10 µM; in assay [4], more than 10 µM; in assay [5] (GP2d), more than 1 µM.
In the case of `CCN(CCO)c1nc(OC[C@@H]2C[C@@H](OC)CN2C)nc2c(F)c(-c3ccc(F)c4sc(N)c(C#N)c34)c(C(F)(F)F)cc12` [Compound 178], the IC50 was 0.1 to 1 µM in assay [1]; 1 to 10 µM in assay [2]; 0.1 to 1 µM in assay [3]; 1 to 10 µM in assay [4]; less than 0.1 µM in assay [5].
On to `CN(CCO)c1nc(OC[C@@]23CCCN2C[C@H](F)C3)nc2c(F)c(-c3ccc(F)c4sc(N)c(C#N)c34)c(C(F)(F)F)cc12` [Compound 70, 2-amino-7-fluoro-4-(8-fluoro-2-(((2R,7aS)-2-fluorotetrahydro-1H-pyrrolizin-7a(5H)-yl)methoxy)-4-((2-hydroxyethyl)(methyl)amino)-6-(trifluoromethyl)quinazolin-7-yl)benzo[b]thiophene-3-carbonitrile], for which the IC50 in assay [1] was less than 0.1 µM; in assay [2], 0.1 to 1 µM; in assay [3] it was 0.1 to 1 µM; in assay [4], 0.1 to 1 µM; in assay [5] (GP2d), less than 0.1 µM.
Take `CN(c1nc(OC[C@@]23CCCN2C[C@H](F)C3)nc2c(F)c(-c3ccc(F)c4sc(N)c(C#N)c34)c(C(F)(F)F)cc12)C1CCC(O)CC1` (stereo partly drawn) [Compound 65]: the IC50 was 0.1 to 1 µM in assay [1]; 0.1 to 1 µM in assay [2]; 0.1 to 1 µM in assay [3]; 0.1 to 1 µM in assay [4]; less than 0.1 µM in assay [5] (GP2d).
Take `C[C@H](O)CN(C)c1nc(OC[C@@]23CCCN2C[C@H](F)C3)nc2c(F)c(-c3ccc(F)c4sc(N)c(C#N)c34)c(C(F)(F)F)cc12` [Compound 72]: the concentration for half-maximal inhibition (IC50) in assay [1] is less than 0.1 µM; in assay [2], 0.1 to 1 µM; in assay [3], 0.1 to 1 µM; in assay [4], 0.1 to 1 µM; in assay [5] (GP2d) it was less than 0.1 µM.
In the case of `CN(CC(F)F)c1nc(OC[C@@]23CCCN2C[C@H](F)C3)nc2c(F)c(-c3ccc(F)c4sc(N)c(C#N)c34)c(C(F)(F)F)cc12` [Compound 164], the IC50 is 0.1 to 1 µM in assay [1]; 0.1 to 1 µM in assay [2]; 0.1 to 1 µM in assay [3]; 0.1 to 1 µM in assay [4]; less than 0.1 µM in assay [5] (GP2d).
Take `CN(c1nc(OC[C@@]23CCCN2C[C@H](F)C3)nc2c(F)c(-c3ccc(F)c4sc(N)c(C#N)c34)c(C(F)(F)F)cc12)[C@@H]1CCS(=O)(=O)C1` [Compound 93]: the IC50 was 0.1 to 1 µM in assay [1]; 0.1 to 1 µM in assay [2]; 0.1 to 1 µM in assay [3]; 0.1 to 1 µM in assay [4]; less than 0.1 µM in assay [5] (GP2d).
As to `Nc1nc2c(-c3c(C(F)(F)F)cc4c(N5CCC(CO)CC5)nc(OCC56CCCN5CCC6)nc4c3F)ccc(F)c2s1` [Compound 43], the IC50 lay in the range of 0.1 to 1 µM in assay [1], 1 to 10 µM in assay [2], 1 to 10 µM in assay [3] and 0.1 to 1 µM in assay [4].
For the compound `Nc1nc2c(-c3c(C(F)(F)F)cc4c(N5CCC(CO)C5)nc(OCC56CCCN5CCC6)nc4c3F)ccc(F)c2s1` (stereo not drawn) [Compound 56], the IC50 is 1 to 10 µM in assay [1], more than 10 µM in assay [2], more than 10 µM in assay [3] and 1 to 10 µM in assay [4].
